Test results reported in patent publication US9115092B2, “Substituted quinazoline and pyrido-pyrimidine derivatives” (Asana Biosciences, LLC, priority 2010, dated 2015).

How the values were obtained:
[1] = target: T1, PI3Kα (wild-type), P110/P85α (Homo sapiens, UniProt P42336); experiment: PI3 Kinase TR-FRET assay, PI3Kα (wild-type); type: biochemical
T1 construct: made in house; host or cells: SF9 insect cells
How it was run: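 Sf9-expressed His-purified P110/P85α (5 ng) preincubated 60 min RT with compound and PIP2 in buffer with 40 mM MgCl2, 5 mM DTT; reaction started with ATP (PIP2 and ATP both 10 μM), 30 min RT. PIP3 detected by TR-FRET displacement, 665/615 nm ratio; IC50 from dose-response curves.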

mTOR kinase = target: T2, mTOR kinase (Homo sapiens, UniProt P42345); experiment: mTOR kinase TR-FRET assay; type: biochemical; conditions: read-out: mTO R
T2 construct: purchased Millipore, USA
How it was run: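 Compounds preincubated 60 min with mTOR (5 ng) in HEPES pH 7.5, EGTA, MnCl2; ULight-p70 S6K Thr389 peptide (50 nM) and ATP (20 μM) then added, 60 min at room temperature. EDTA-stopped, Eu-anti-phospho antibody detection by TR-FRET (665/615 nm); IC50 from variable-slope sigmoidal fit.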

[2] = system: pS6RP(S235/236), PC3 cells; experiment: In-cell Western assay, pS6RP(S235/236) in PC3 cells; type: cell-based, human
Method: Cells from human prostate cancer cell line PC3 (American Type Culture Collection (ATCC), Manassas, Va. 20108 USA) were seeded at an optimal density of 22,000 cell/well in 96-well plates containing Ham's F12K medium (90 μL) and incubated overnight. The compound dilutions were carried out in 100% DMSO followed by a dilution in the medium. Test compounds were added in serial dilutions to the wells and incubated for 2 h. The cells were washed and fixed with 4% paraformaldehyde. After incubation at room temperature for 1 h in the dark, blocking was done for 2 h at room temperature. Primary antibodies for phosphorylated (p) AKT(5473) (phosphorylated at serine 473), pAKT(T308) (phosphorylated at threonine 308) and for pS6RP(S235/236) (phosphorylated at serine 235/236) (commercially available from Cell Signaling Technology®, whose protocol was followed for the in-cell western assay, were diluted to the required concentration and added to the corresponding wells followed by overnight incubation at 4° C. Eu-labeled rabbit (PE) (Perkin-Elmer USA catalog #AD0106) secondary antibody was added and incubated for 2 h at room temperature. Delfia® enhancement solution (cat #1244-105, Perkin Elmer USA) was subsequently added to the plate before taking the reading at 615 nm with excitation wavelength of 340 nm, after which 0.5 μg/mL of Hoechst® 33258 dye (Catalog #86140-5, Sigma) was added to the plate and fluorescence emission was read at 460 nm with 355 nm excitation, to evaluate the correction factor. IC50 values were calculated using a sigmoidal dose-response curve fit in GraphPad Prism® v5 software.

PC3 cells = experiment: XTT assay for cell viability, PC3 cells; type: cell-based, human; conditions: Homo sapiens, PC-3, cell viability
How it was run: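 PC3 cells seeded at 1000 cells/well, grown 24 h, then exposed to serial dilutions of compound for 96 h. Viability read by XTT dye at 37° C, absorbance 465 nm. EC50 from sigmoidal dose-response fit.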

[3] = Homo sapiens, PC-3, In-cell Western

T1 sequence (P42336 whole entry): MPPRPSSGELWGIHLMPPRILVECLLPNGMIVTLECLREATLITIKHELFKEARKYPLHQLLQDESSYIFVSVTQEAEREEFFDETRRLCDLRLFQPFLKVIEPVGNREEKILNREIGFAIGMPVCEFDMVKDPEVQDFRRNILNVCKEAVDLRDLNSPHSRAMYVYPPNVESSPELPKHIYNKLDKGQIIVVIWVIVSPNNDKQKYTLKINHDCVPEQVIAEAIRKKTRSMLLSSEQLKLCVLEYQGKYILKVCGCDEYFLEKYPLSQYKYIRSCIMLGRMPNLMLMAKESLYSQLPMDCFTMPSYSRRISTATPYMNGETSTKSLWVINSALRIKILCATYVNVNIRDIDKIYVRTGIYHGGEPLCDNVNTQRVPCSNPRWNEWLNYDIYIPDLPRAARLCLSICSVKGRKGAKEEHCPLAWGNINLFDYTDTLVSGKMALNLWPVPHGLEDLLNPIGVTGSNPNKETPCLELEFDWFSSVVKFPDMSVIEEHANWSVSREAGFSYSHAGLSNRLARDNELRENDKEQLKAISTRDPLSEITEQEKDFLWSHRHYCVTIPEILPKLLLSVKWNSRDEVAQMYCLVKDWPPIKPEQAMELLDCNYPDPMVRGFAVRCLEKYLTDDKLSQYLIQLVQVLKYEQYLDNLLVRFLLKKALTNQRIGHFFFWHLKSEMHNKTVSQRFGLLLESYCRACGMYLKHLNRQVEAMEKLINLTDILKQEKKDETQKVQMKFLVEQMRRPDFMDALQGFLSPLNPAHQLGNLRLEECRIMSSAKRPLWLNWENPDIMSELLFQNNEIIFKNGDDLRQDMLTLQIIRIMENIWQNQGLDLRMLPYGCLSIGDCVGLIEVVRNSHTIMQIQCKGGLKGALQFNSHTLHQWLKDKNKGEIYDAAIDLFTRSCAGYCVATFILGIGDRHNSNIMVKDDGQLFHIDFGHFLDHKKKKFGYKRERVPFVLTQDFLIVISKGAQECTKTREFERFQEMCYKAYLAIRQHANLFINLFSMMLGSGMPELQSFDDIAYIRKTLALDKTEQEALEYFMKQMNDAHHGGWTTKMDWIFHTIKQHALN
T1 sequence (P27986 whole entry partner): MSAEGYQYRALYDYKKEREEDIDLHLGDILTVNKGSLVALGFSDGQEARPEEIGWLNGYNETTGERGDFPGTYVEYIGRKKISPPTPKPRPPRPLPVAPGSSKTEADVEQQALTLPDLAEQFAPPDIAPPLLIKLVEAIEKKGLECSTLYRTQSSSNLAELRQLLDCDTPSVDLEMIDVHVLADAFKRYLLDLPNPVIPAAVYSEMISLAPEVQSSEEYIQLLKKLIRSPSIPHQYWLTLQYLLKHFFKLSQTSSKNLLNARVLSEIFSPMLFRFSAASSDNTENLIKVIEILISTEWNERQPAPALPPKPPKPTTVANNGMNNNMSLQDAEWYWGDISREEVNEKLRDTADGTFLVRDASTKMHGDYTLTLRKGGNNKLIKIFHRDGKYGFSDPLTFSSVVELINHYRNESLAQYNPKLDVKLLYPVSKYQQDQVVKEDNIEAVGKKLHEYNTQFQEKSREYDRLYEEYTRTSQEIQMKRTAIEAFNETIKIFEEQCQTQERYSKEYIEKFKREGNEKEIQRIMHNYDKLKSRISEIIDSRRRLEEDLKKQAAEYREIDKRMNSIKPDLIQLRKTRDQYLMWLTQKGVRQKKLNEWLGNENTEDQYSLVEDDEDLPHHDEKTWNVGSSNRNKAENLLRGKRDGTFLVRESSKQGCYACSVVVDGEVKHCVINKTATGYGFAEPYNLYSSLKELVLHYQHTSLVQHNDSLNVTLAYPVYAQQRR

Structure (SMILES)	IC50 [1] [nM]	IC50 (mTOR kinase) [nM]	IC50 ([2]; In-cell Western) [nM]	IC50 [2, 3] [nM]	IC50 (PC3 cells) [nM]
CN(C)C1CCN(C(=O)c2ccc(NC(=O)Nc3ccc(-c4nc(N5CCOCC5)c5ncc(-c6cnn(C)c6)cc5n4)cc3)cc2)C1 (stereo in doubt) [Example 185, (S)-1-(4-(3-(dimethylamino)pyrrolidine-1-carbonyl)phenyl)-3-(4-(7-(1-methyl-1H-pyrazol-4-yl)-4-morpholino-pyrido[3,2-d]pyrimidin-2-yl)phenyl)urea]	< 50	< 50	201 to 10000		
CN(C)C1CCN(C(=O)c2ccc(NC(=O)Nc3ccc(-c4nc(N5CCOCC5)c5ccc(-c6cncnc6)cc5n4)cc3)cc2)C1 (stereo in doubt) [Example 188, (S)-1-(4-(3-(dimethylamino)pyrrolidine-1-carbonyl)phenyl)-3-(4-(4-morpholino-7-(pyrimidin-5-yl)quinazolin-2-yl)phenyl)urea]	< 50	< 50	201 to 10000		
CN(C)C1CCN(C(=O)c2ccc(NC(=O)Nc3ccc(-c4nc(N5CCOCC5)c5cc(F)c(-c6cccnc6)cc5n4)cc3)cc2)C1 (stereo in doubt) [Example 198, (S)-1-(4-(3-(dimethylamino)pyrrolidine-1-carbonyl)phenyl)-3-(4-(6-fluoro-4-morpholino-7-(pyridin-3-yl)quinazolin-2-yl)phenyl)urea]	< 50	< 50		201 to 10000	201 to 10000
CN(C)C1CCN(C(=O)c2ccc(NC(=O)Nc3ccc(-c4nc(N5CCOCC5)c5ncc(-c6cncnc6)cc5n4)cc3)cc2)C1 (stereo in doubt) [Example 199, (S)-1-(4-(3-(dimethylamino)pyrrolidine-1-carbonyl)phenyl)-3-(4-(4-morpholino-7-(pyrimidin-5-yl)pyrido[3,2-d]pyrimidin-2-yl)phenyl)urea]	< 50	< 50		201 to 10000	201 to 10000
CN(C)C1CCN(C(=O)c2ccc(NC(=O)Nc3ccc(-c4nc(N5CCOCC5)c5ccc(-c6cncnc6)cc5n4)cc3F)cc2)C1 (stereo in doubt) [Example 207, (S)-1-(4-(3-(dimethylamino)pyrrolidine-1-carbonyl)phenyl)-3-(2-fluoro-4-(4-morpholino-7-(pyrimidin-5-yl)quinazolin-2-yl)phenyl)urea]	< 50	< 50		201 to 10000	< 100
NC1CCN(C(=O)c2ccc(NC(=O)Nc3ccc(-c4nc(N5CCOCC5)c5ccc(-c6cncnc6)cc5n4)cc3F)cc2)C1 (stereo in doubt) [Example 208, (S)-1-(4-(3-aminopyrrolidine-1-carbonyl)phenyl)-3-(2-fluoro-4-(4-morpholino-7-(pyrimidin-5-yl)quinazolin-2-yl)phenyl)urea]	< 50	< 50		201 to 10000	201 to 10000
CN(C)C1CCN(C(=O)c2ccc(NC(=O)Nc3ccc(-c4nc(N5CCOCC5)c5ncc(-c6cnn(C)c6)cc5n4)cc3F)cc2)C1 (stereo in doubt) [Example 210, (S)-1-(4-(3-(dimethylamino)pyrrolidine-1-carbonyl)phenyl)-3-(2-fluoro-4-(7-(1-methyl-1H-pyrazol-4-yl)-4-morpholino-pyrido[3,2-d]pyrimidin-2-yl)phenyl)urea]	< 50	< 50	201 to 10000		
CN(C)C1CCN(C(=O)c2ccc(NC(=O)Nc3ccc(-c4nc(N5CCOCC5)c5ncc(-c6cccnc6F)cc5n4)cc3F)cc2)C1 (stereo in doubt) [Example 213, (S)-1-(4-(3-(dimethylamino)pyrrolidine-1-carbonyl)phenyl)-3-(2-fluoro-4-(7-(2-fluoropyridin-3-yl)-4-morpholino-pyrido[3,2-d]pyrimidin-2-yl)phenyl)urea]	< 50	< 50		201 to 10000	201 to 10000
Cc1ccc(-c2ccc3c(N4CCOCC4)nc(-c4ccc(NC(=O)Nc5ccc(C(=O)N6CC[C@@H](N(C)C)C6)cc5)cc4)nc3c2)o1 [Example 196, (R)-1-(4-(3-(dimethylamino)pyrrolidine-1-carbonyl)phenyl)-3-(4-(7-(5-methylfuran-2-yl)-4-morpholino-quinazolin-2-yl)phenyl)urea]	50 to 200	< 50		< 100	
CN(C)[C@@H]1CCN(C(=O)c2ccc(NC(=O)Nc3ccc(-c4nc(N5CCOCC5)c5cc(F)c(-c6cccnc6)cc5n4)cc3)cc2)C1 [Example 200, (R)-1-(4-(3-(dimethylamino)pyrrolidine-1-carbonyl)phenyl)-3-(4-(6-fluoro-4-morpholino-7-(pyridin-3-yl)quinazolin-2-yl)phenyl)urea]	< 50	< 50	201 to 10000		
N[C@@H]1CCN(C(=O)c2ccc(NC(=O)Nc3ccc(-c4nc(N5CCOCC5)c5ccc(-c6cncnc6)cc5n4)cc3F)cc2)C1 [Example 209, (R)-1-(4-(3-aminopyrrolidine-1-carbonyl)phenyl)-3-(2-fluoro-4-(4-morpholino-7-(pyrimidin-5-yl)quinazolin-2-yl)phenyl)urea]	< 50	< 50	201 to 10000		
COc1ncc(-c2ccc3c(N4CCOCC4)nc(-c4ccc(NC(=O)Nc5ccc(C(=O)N(C)C)c(F)c5)cc4)nc3c2)cn1 [Example 257, 2-fluoro-4-(3-(4-(7-(2-methoxypyrimidin-5-yl)-4-morpholino-quinazolin-2-yl)phenyl)ureido)-N,N-dimethyl-benzamide]	< 50	< 50			201 to 10000

Results, then the molecule that gave them:

IC50 [1] [nM]	IC50 (mTOR kinase) [nM]	IC50 ([2]; In-cell Western) [nM]	IC50 [2, 3] [nM]	IC50 (PC3 cells) [nM]	Structure (SMILES)
50 to 200	< 50			201 to 10000	COc1ccc(-c2ccc3c(N4CCOCC4)nc(-c4ccc(NC(=O)Nc5ccc(C(=O)N(C)C)c(F)c5)cc4)nc3c2)cn1 [Example 259, 2-fluoro-4-(3-(4-(7-(6-methoxypyridin-3-yl)-4-morpholino-quinazolin-2-yl)phenyl)ureido)-N,N-dimethyl-benzamide]
< 50	< 50			201 to 10000	CN(C)C(=O)c1ccc(NC(=O)Nc2ccc(-c3nc(N4CCOCC4)c4ccc(-c5cccnc5)cc4n3)cc2)cc1F [Example 260, 2-fluoro-N,N-dimethyl-4-(3-(4-(4-morpholino-7-(pyridin-3-yl)quinazolin-2-yl)phenyl)ureido)-benzamide]
50 to 200	50 to 200			< 100	CN(C)C(=O)c1ccc(NC(=O)Nc2ccc(-c3nc(N4CCOCC4)c4ccc(-c5ccco5)cc4n3)cc2)cc1F [Example 265, 2-fluoro-4-(3-(4-(7-(furan-2-yl)-4-morpholino-quinazolin-2-yl)phenyl)ureido)-N,N-dimethyl-benzamide]
< 50	50 to 200			201 to 10000	CN(C)C(=O)c1ccc(NC(=O)Nc2ccc(-c3nc(N4CCOCC4)c4ccc(-c5ccc(CO)o5)cc4n3)c(F)c2)cc1 [Example 274, 4-(3-(3-fluoro-4-(7-(5-(hydroxymethyl)furan-2-yl)-4-morpholino-quinazolin-2-yl)phenyl)ureido)-N,N-dimethyl-benzamide]
50 to 200	< 50			201 to 10000	CC(O)c1ccc(-c2ccc3c(N4CCOCC4)nc(-c4ccc(NC(=O)Nc5ccc(C(=O)N(C)C)cc5)cc4F)nc3c2)o1 (centres unmarked) [Example 275, 4-(3-(3-fluoro-4-(7-(5-(1-hydroxyethyl)furan-2-yl)-4-morpholino-quinazolin-2-yl)phenyl)ureido)-N,N-dimethyl-benzamide]
50 to 200	< 50			< 100	CN(C)C(=O)c1ccc(NC(=O)Nc2ccc(-c3nc(N4CCOCC4)c4ccc(-c5cncnc5)cc4n3)c(F)c2F)cc1 [Example 280, 4-(3-(2,3-difluoro-4-(4-morpholino-7-(pyrimidin-5-yl)quinazolin-2-yl)phenyl)ureido)-N,N-dimethyl-benzamide]
50 to 200	201 to 10000			< 100	CN(C)C(=O)c1ccc(NC(=O)Nc2ccc(-c3nc(N4CCOCC4)c4ccc(-c5ccco5)cc4n3)c(F)c2F)cc1 [Example 282, -(3-(2,3-difluoro-4-(7-(furan-2-yl)-4-morpholino-quinazolin-2-yl)phenyl)ureido)-N,N-dimethyl-benzamide]
